Source: patent US6716829B2, “Aldosterone antagonist and cyclooxygenase-2 inhibitor combination therapy to prevent or treat inflammation-related cardiovascular disorders” (Pharmacia Corporation, priority 2000, dated 2004)
Values joined by “and” are separate entries in the source; they are usually repeats but may differ in a detail not shown here. Equal entries are not always repeated. “Also recorded” adds a separate entry of the source.

How the values were obtained:
[1] = tested on: Transforming growth factor beta 1 (TGFβ1); assay: Assay C: TGFβ1 mRNA by TaqMan RT-PCR; assay type: in vivo, Male Sprague-Dawley rats; conditions: for TGF-β1 mRNA (AU): relative to cyclophilin expression, mean ± SEM, eplerenone dose 100 mg/kg/day; for TGF-β (AU): mRNA, individual rats, incl. rat marked * excluded from statistics
Experimental: (§1) The procedure of Assay B was expanded upon in a further study. […] Myocardial tissue from animals in each treatment group was examined after 7, 14, or 30 days of treatment.
(§2) Potassium chloride supplementation was added to the saline solution in order to prevent the potential hypokalemia associated with aldosterone excess.
(§3) At the time of the surgery, an Alzet 2002 osmotic minipump (Alza Corp., Palo Alto, Calif.) containing either vehicle (9% ethanol/87% propylene glycol/4% dH2O) or 1.0 mg/mL d-aldosterone (Sigma Chemical, St. Louis, Mo.) was inserted subcutaneously at the nape of the neck. Aldosterone was administered at a dose of 0.75 µg/hour. […] Animals were sacrificed from each group (n=8-13) after 7, 14, or 30 days of treatment.
(§4) The fluorogenic 5′-nuclease assay (TaqMan PCR) using Applied Biosystems' 7700 Sequence Detection System (Applied Biosystems, Foster City, Calif.) allowed for real time detection/quantitation of a specific gene by monitoring the increase in fluorescence of a gene-specific, dye-labeled oligonucleotide probe. Probes for target and reference genes were labeled at the 5′-end with a 6-carboxyfluorescein (6FAM) reporter dye and at the 3′-end with a 6-carboxy-N,N,N′,N′-tetramethylrhodamine (TAMRA) quencher dye. When the probe was annealed to the target gene, fluorescence of 6FAM was prevented by the close proximity of TAMRA. The exonuclease activity of Taq polymerase released the dyes from the oligonucleotide probe by displacing the probe from the target sequence resulting in fluorescence excitation in direct proportion to the amount of target message present. Data analysis was performed using the Sequence Detection System software from Applied Biosystems.
(§5) Primers and probes were designed using Oligo Primer Analysis Software, Version 5.0 (National Biosciences Inc. (NBI)-Wojciech Rychlik, Cascade, Colo.). Primers were synthesized by Life Technologies (Grand Island, N.Y.) and probes were synthesized by Applied Biosystems. Primer/probe sets were designed from known sequences of rat genes to be analyzed. All target gene values were normalized to a reference gene, constitutively expressed cyclophilin. Primer/probe sets sequences can be found in Table 8
(§6) RNA was extracted from frozen (−70° C.) left ventricle (LV) tissue (approximately 10-20 mg) using 1.5 mL RNA-STAT 60 according to manufacturer's instructions (Leedo Medical Laboratories, Inc., Houston, Tex.). Briefly, tissues were homogenized using a tissue homogenizer equipped with a 5 mm probe (Ultra-Turrax T8 Homogenizer, IKA Works, Inc. Wilmington, N.C.). Following homogenization, an equal volume of molecular grade chloroform (Sigma Chemical Co., St. Louis, Mo.) was incubated with periodic mixing for 10 min at room temperature. Samples were centrifuged at 12,000 g for 10 min and RNA was precipitated from the top layer by adding an equal volume of molecular grade isopropanol (Sigma Chemical Co.) followed by an overnight incubation at −80° C. RNA was pelleted by centrifugation at 12,000 g, washed with 75% ethanol, and solubilized in nuclease-free water (Promega, Madison, Wis.).
(§7) Double-stranded cDNA was synthesized by adding 400 ng RNA (4 uL) to a final volume of 20 uL containing 15% nuclease-free water (Promega, Madison, Wis.), 1×RT Buffer (Life Technologies, Grand Island, N.Y.), 10 mM DTT (Life Technologies), 0.5 mM each of dATP, dTTP, dGTP, dCTP (PE Biosystems, Foster City, Calif.), 2.5 μM Oligo d(T)15 (Oligo Therapeutics, Inc., Wilsonville, Oreg.), 40 units RNAsin (Promega), and 200 units SuperScript II Reverse Transcriptase (Life Technologies). The reactions were performed in thin-walled reaction tubes with caps (Applied Biosystems) to ensure accurate reaction temperatures.

aldosterone infused rats = assay: Assay B, aldosterone infusion model: systolic blood pressure by radio-telemetry; assay type: in vivo, Male Sprague Dawley rats; conditions: 1% NaCl, uni-nephrectomized rats, eplerenone 100 mpk p.o., 4 weeks
Experimental: Human cardiovascular disorders are complex conditions, often initiated by vascular hypertension or a myocardial infarction (MI). In order to determine the probable effectiveness of a therapy for cardiovascular disorders, it is important to determine the potency of components in several assays. Accordingly, in Assay “A”, the efficacy of the aldosterone antagonist epeplerenone (epoxymexrenone) was determined in a hypertensive rat model with vascular inflammation, using angiotensin II infusion. In Assay “B” a study is described evaluating the efficacy of the aldosterone antagonist epeplerenone (epoxymexrenone) in a rat model using aldosterone infusion to produce hypertension with vascular inflammation. In Assay “C” a further study is described evaluating the efficacy of the aldosterone antagonist epeplerenone (epoxymexrenone) in a rat model using aldosterone infusion to produce hypertension with vascular inflammation. Assay B: In Vivo Aldosterone Infusion Model Male Sprague Dawley rats (n=39; BW=250 g) […] Uni-nephrectomy performed during implantation of mini-pumps 2. Aldosterone ([…], sc via alzet minipump) 2. […] 1. […] SBP measured by radio-telemetry probes inserted in the abdominal aorta

Collagen III = assay: Assay C: Collagen III mRNA by TaqMan RT-PCR; assay type: in vivo, Male Sprague-Dawley rats; conditions: for Collagen-III (AU): collagen type III mRNA relative to cyclophilin, eplerenone dose 100 mg/kg/day
Experimental: as §1, §2, §3, §4, §5, §6, §7

[2] = mean ± SEM after 7 days of treatment
[3] = mean ± SEM after 14 days of treatment
[4] = mean ± SEM after 30 days of treatment
[5] = group mean, data used for Table 15 (14 days of treatment)
[6] = group mean, data used for Table 16 (30 days of treatment)

Structure (SMILES) | TGF-β1 mRNA (AU) ([1]; after 7 days of treatment) | TGF-β1 mRNA (AU) ([1]; after 14 days of treatment) | TGF-β1 mRNA (AU) ([1]; after 30 days of treatment) | TGF-β (AU) ([1]; data used for Table 17 (7-day protocol), listed as Aldosterone + salt) | TGF-β (AU) ([1]; data used for Table 18 (14-day protocol), listed as Aldosterone + salt) | TGF-β (AU) ([1]; data used for Table 19 (30-day protocol), listed as Aldosterone + salt) | Systolic Blood Pressure (aldosterone infused rats) | Collagen-III (AU) (Collagen III; [2]) | Collagen-III (AU) (Collagen III; [3]) | Collagen-III (AU) (Collagen III; [4]) | Collagen-III mRNA (AU) (Collagen III; [5]) | Collagen-III mRNA (AU) (Collagen III; [6]) | Collagen-III mRNA (AU) (Collagen III; individual rats, data used for Table 15 (14 days of treatment), incl. rat marked * excluded from statistics, listed as Aldosterone + salt) | Collagen-III mRNA (AU) (Collagen III; individual rats, data used for Table 16 (30 days of treatment), incl. rat marked * excluded from statistics, listed as Aldosterone + salt) | TGF-β (AU) ([1]; data used for Table 17 (7-day protocol), listed as Eplerenone + aldosterone + salt) | TGF-β (AU) ([1]; data used for Table 18 (14-day protocol), listed as Eplerenone + aldosterone + salt) | TGF-β (AU) ([1]; data used for Table 19 (30-day protocol), listed as Eplerenone + aldosterone + salt) | Systolic Blood Pressure (aldosterone infused rats; listed as eplerenone) | Collagen-III mRNA (AU) (Collagen III; individual rats, data used for Table 15 (14 days of treatment), incl. rat marked * excluded from statistics, listed as Eplerenone + aldosterone + salt) | Collagen-III mRNA (AU) (Collagen III; individual rats, data used for Table 16 (30 days of treatment), incl. rat marked * excluded from statistics, listed as Eplerenone + aldosterone + salt)
C[C@]12CCC(=O)C=C1CC[C@@H]1[C@@H]2[C@@H](O)C[C@]2(C=O)[C@@H](C(=O)CO)CC[C@@H]12 [Aldosterone] | 1.35 AU | 1.27 AU | 1.33 AU | 1.23 AU and 0.98 AU and 1.31 AU and 1.89 AU and 1.22 AU and 1.45 AU and 1.47 AU and 1.21 AU and 1.35 AU | 1.26 AU and 1.85 AU and 0.55 AU and 1.91 AU and 1.49 AU and 1.18 AU and 1.32 AU and 1.27 AU and 0.56 AU and 1.29 AU | 1.41 AU and 1.27 AU and 2.11 AU and 1.20 AU and 1.95 AU and 1.49 AU and 0.83 AU and 0.54 AU and 1.21 AU | increased; also recorded: systolic blood pressure elevation | 1.42 ± 0.12 AU | 1.08 ± 0.14 AU | 1.39 ± 0.20 AU | 1.08 AU | 1.39 AU | 0.76 AU and 1.80 AU and 0.44 AU and 1.39 AU and 1.17 AU and 1.24 AU and 1.06 AU and 1.31 AU and 0.59 AU and 1.22 AU | 0.75 AU and 0.58 AU and 1.99 AU and 0.72 AU and 2.04 AU and 1.43 AU and 1.82 AU and 1.89 AU and 1.28 AU |  |  |  |  |  | 
COC(=O)[C@@H]1CC2=CC(=O)CC[C@]2(C)[C@@]23O[C@@H]2C[C@@]2(C)[C@@H](CC[C@@]24CCC(=O)O4)[C@H]13 [Eplerenone] | 0.99 AU | 1.26 AU | 1.32 AU |  |  |  | significantly reduced, but did not normalize blood pressure | 1.09± 0.21 AU | 1.61 ± 0.26 AU | 1.53 ± 0.23 AU | 1.61 AU | 1.53 AU |  |  | 0.80 AU (2×) and 0.81 AU and 0.51 AU and 1.31 AU and 1.02 AU and 0.61 AU and 0.84 AU and 1.51 AU and 1.64 AU | 0.58 AU and 0.62 AU and 1.04 AU and 1.42 AU and 1.29 AU and 1.49 AU and 0.71 AU and 1.21 AU and 1.44 AU and 1.69 AU and 2.41 AU | 1.00 AU and 1.49 AU and 1.40 AU and 1.31 AU and 0.96 AU and 1.93 AU and 1.54 AU and 1.32 AU and 0.89 AU and 1.35 AU | depression of this elevation | 0.60 AU (2×) and 1.19 AU and 1.16 AU and 1.24 AU and 1.70 AU and 1.81 AU and 1.61 AU and 2.21 AU and 1.80 AU and 3.77 AU | 0.95 AU and 0.72 AU and 1.37 AU and 0.89 AU and 1.26 AU and 1.87 AU and 1.66 AU and 2.89 AU and 2.16 AU and 0.73 AU
